Drawing on patent US12180192B2, “Modulators of THR-β and methods of use thereof” (ALIGOS THERAPEUTICS, INC., priority 2019, dated 2024), this text covers EC50 and Emax for 10 compounds.

Like-named read-outs stand apart in the source and are kept apart here.

The target of test [1] is T1, human thyroid receptor beta ligand-binding domain (LBD) (Homo sapiens, UniProt P10828).
T1 construct: purchased Invitrogen
T1 sequence (P10828 217-461 limits assumed): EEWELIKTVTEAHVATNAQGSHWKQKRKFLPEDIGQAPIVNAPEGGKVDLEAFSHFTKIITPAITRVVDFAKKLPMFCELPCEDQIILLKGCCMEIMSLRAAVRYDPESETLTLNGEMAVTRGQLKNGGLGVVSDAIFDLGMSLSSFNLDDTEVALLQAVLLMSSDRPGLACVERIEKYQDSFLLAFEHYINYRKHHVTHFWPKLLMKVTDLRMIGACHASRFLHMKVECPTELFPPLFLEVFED
Briefly: TR-FRET thyroid receptor beta coactivator assay (THR biochemical assay, Assay 1). As to conditions: for EC50: THR-beta, TR-FRET coactivator assay, read-out: Activity category Assay 1 (EC50, THR-beta agonist); for Emax: Table 5, Assay 1, THRβ, read-out: Activity category Assay 1 THRβ (Emax). The text has this: (§1) The TR-FRET thyroid receptor beta coactivator assay was used with slight, optimized modifications of the manufacturer's protocol (Invitrogen). The assay uses a terbium-labeled anti-GST antibody, a glutathione-S-transferase (GST) tagged human thyroid receptor, beta or alpha, ligand-binding domain (LBD), and a fluorescein labeled SRC2-2 coactivator peptide. […] The energy transfer is detected as an increase in the fluorescence emission of the fluorescein acceptor, and a decrease in the fluorescence emission of the terbium donor. The assay is performed in a 384-well black plate in a final volume of 20 μL. Serial dilution of various test agonists was performed in DMSO (1% final DMSO concentration) and added to the test plate. Thyroid receptor beta LBD is added to the plate at a final concentration of 1 nM, followed by the mixture of the fluorescein labeled SRC2-2 coactivator peptide, and the terbium-labeled anti-GST antibody at final concentrations of 200 nM and 2 nM respectively. The assay is incubated for 1 hr at rt protected from light.

A further test concerns the target T2, THR alpha (Homo sapiens, UniProt P10827).
T2 construct: expressed in transfected cells; host or cells: HEK293T (ATCC CRL-3216)
T2 sequence (P10827 1-410 isoform P10827-2): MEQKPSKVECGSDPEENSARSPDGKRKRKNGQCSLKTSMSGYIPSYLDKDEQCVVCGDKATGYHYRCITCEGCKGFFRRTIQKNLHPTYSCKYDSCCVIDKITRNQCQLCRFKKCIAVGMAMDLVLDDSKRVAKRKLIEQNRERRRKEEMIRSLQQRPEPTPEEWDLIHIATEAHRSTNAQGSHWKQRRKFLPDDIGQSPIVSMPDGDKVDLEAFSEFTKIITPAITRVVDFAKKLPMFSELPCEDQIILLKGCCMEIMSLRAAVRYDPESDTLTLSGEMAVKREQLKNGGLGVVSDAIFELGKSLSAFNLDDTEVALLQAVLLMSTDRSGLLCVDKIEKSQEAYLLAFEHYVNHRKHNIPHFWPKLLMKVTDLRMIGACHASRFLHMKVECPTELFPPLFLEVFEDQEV
T2 sequence (P19793 1-462 partner): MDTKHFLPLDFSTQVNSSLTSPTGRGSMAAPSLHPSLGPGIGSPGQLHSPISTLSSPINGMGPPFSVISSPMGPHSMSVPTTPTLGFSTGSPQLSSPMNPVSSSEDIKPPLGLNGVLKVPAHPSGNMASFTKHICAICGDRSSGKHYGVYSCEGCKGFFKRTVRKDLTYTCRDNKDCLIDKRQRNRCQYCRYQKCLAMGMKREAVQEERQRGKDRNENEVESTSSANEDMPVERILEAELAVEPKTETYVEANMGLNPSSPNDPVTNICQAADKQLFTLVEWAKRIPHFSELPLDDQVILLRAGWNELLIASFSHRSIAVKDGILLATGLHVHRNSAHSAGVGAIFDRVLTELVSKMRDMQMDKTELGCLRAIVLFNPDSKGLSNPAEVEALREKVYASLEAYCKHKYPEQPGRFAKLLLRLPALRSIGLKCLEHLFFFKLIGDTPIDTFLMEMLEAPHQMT
Description: HEK293T THR alpha/RXR luciferase reporter assay (Assay 2). The class given is cell-based. To be noted: for Emax: HEK-293T, Table 5, THRα, read-out: Activity category Assay 2 THRα (Emax). The method, then:
(§2) HEK293T Reporter THRalpha/Beta/RXR Reporter Assay (Assay 2)
(§3) The purpose of this assay is to evaluate the effect of compounds on the thyroid hormone nuclear receptor pathway in HEK293T cells. To this end, HEK293T cells are transiently transfected with a luciferase reporter under the control of the thyroid response element (TRE), an RXR expression plasmid and either a THR alpha or THR beta expression plasmid. Transfected cells are stimulated with test compounds for 18-24 hours before activation of the thyroid hormone pathway is measured via a luciferase read-out.
(§4) Procedure. […] Ten five-fold dilutions of test compounds are prepared in DMSO and 30 nL are dispensed to the cells. […] Approximately 18-24 h after compound addition, 384 well plates are allowed to adjust to rt, 30 μL One-Glo (Promega catalog #E6120) is added to each well and luminescence is measured on a Perkin Elmer Enspire plate reader. Percent agonism is calculated using the following equation: 100× (sample-negative control)/(positive control-negative control).
A general note: A reporter such as luciferase makes a cellular process visible.

The target of test [2] is T3, human thyroid receptor alpha ligand-binding domain (LBD) (Homo sapiens, UniProt P10827).
T3 construct: purchased Invitrogen
Description: TR-FRET thyroid receptor alpha coactivator assay (THR biochemical assay, Assay 1). As to conditions: for EC50: Table 4, THR-alpha, read-out: Activity category Assay 1 (EC50, THR-alpha agonist activity); for Emax: Table 5, THRα, read-out: Activity category Assay 1 THRα (Emax).
Source text: as §1
On the technique in general: In TR-FRET formats the signal depends on donor and acceptor labels being close together.

A further test has as its target T4, THR beta (Homo sapiens, UniProt P10828).
T4 construct: expressed in transfected cells; host or cells: HEK293T (ATCC CRL-3216)
T4 sequence (P10828 1-461): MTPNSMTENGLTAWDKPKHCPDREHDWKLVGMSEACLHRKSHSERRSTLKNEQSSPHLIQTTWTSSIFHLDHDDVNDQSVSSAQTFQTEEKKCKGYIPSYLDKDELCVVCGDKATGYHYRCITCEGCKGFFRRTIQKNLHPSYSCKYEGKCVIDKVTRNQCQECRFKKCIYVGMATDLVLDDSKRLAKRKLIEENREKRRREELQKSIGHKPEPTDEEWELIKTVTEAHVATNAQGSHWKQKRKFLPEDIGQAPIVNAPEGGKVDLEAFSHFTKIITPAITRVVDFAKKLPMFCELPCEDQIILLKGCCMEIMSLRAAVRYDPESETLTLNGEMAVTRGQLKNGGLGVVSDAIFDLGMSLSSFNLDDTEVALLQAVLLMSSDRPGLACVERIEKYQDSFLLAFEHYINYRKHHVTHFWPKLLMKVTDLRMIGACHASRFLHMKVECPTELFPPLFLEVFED
T4 sequence (P19793 1-462 partner): T2 sequence (P19793 1-462 partner)
Briefly: HEK293T THR beta/RXR luciferase reporter assay (Assay 2). As to conditions: for Emax: HEK-293T, Table 5, Assay 2, THRβ, read-out: Activity category Assay 2 THRβ (Emax). The class given is cell-based. As for the experimental part: as §2, §3, §4

[3] abbreviates: Table 4, THR-alpha, Assay 2, read-out: Activity category Assay 2 (EC50, THR-alpha agonist activity).
The mark [4] stands for this setting: THR-beta, HEK293T reporter assay, read-out: Activity category Assay 2 (EC50, THR-beta agonist).

Regarding `Nc1nn(-c2cc(Cl)c(Oc3cc(C4CCC(F)(F)CC4)c(=O)[nH]n3)c(Cl)c2)c(=O)[nH]c1=O` [Compound 97], the EC50 (commonly the concentration needed to bring the measured effect to its halfway point) in test [1] was 250 to 1000 nM; at THR alpha (setting [3]) it was over 10000 nM; in test [2], 1000 to 25000 nM; on THR beta (setting [4]), 1000 to 10000 nM. Also, the Emax (in test [1]; at THR alpha (Assay 2); in test [2]; at THR beta) was under 50% in each case.
In the case of `CC1(C)CN(c2cc(Oc3c(Cl)cc(-n4nc(N)c(=O)[nH]c4=O)cc3Cl)n[nH]c2=O)C1` [Compound 159, 6-amino-2-(3,5-dichloro-4-[[5-(3,3-dimethylazetidin-1-yl)-6-oxo-1H-pyridazin-3-yl]oxy]phenyl)-4H-1,2,4-triazine-3,5-dione], the EC50 lay in the range of 50 to 250 nM in test [1], 1000 to 10000 nM at THR alpha (setting [3]), 250 to 1000 nM in test [2] and 50 to 250 nM on THR beta (setting [4]). Moreover, the Emax (in general, the size of the effect at its maximum, as opposed to the concentration needed) was under 50% in test [1], under 50% on THR alpha (Assay 2), under 50% in test [2] and 50 to 75% at THR beta.
As to `CC(C)/C=C1\C(=O)Nc2ccc(Oc3c(Cl)cc(-n4nc(N)c(=O)[nH]c4=O)cc3Cl)cc21` [Compound 147, 6-amino-2-[3,5-dichloro-4-[(3Z)-3-(2-methylpropylidene)-2-oxo-indolin-5-yl]oxy-phenyl]-1,2,4-triazine-3,5-dione], the EC50 (in test [1]; on THR alpha (setting [3]); in test [2]; at THR beta (setting [4])) was under 50 nM throughout. Besides, the Emax is 50 to 75% in test [1], over 75% on THR alpha (Assay 2), under 50% in test [2] and over 75% on THR beta.
Turning to `O=c1cnn(-c2cc(Cl)c(Oc3cc(-c4ccc5ccccc5c4)c(=O)[nH]n3)c(Cl)c2)c(=O)[nH]1` [Compound 92], the EC50 in test [1] was 50 to 250 nM; on THR alpha (setting [3]), over 10000 nM; in test [2] it was 1000 to 25000 nM; on THR beta (setting [4]), 50 to 250 nM. Moreover, the maximal response (Emax) (in test [1]; on THR alpha (Assay 2); in test [2]; on THR beta) was under 50% each time.
With `Nc1nn(-c2cc(Cl)c(Oc3cc(Cc4ccc(=O)[nH]n4)c(=O)[nH]n3)c(Cl)c2)c(=O)[nH]c1=O` [Compound 160, 6-amino-2-[3,5-dichloro-4-([6-oxo-5-[(6-oxo-1H-pyridazin-3-yl)methyl]-1H-pyridazin-3-yl]oxy)phenyl]-4H-1,2,4-triazine-3,5-dione], the EC50 was 1000 to 25000 nM in test [1], over 10000 nM at THR alpha (setting [3]), 1000 to 25000 nM in test [2] and over 10000 nM at THR beta (setting [4]). The Emax (in test [1]; on THR alpha (Assay 2); in test [2]; at THR beta) was under 50% in each case.
As for `CC1(C)C(=O)Nc2nnc(Oc3c(Cl)cc(-n4nc(C#N)c(=O)[nH]c4=O)cc3Cl)cc21` [Compound 74, 2-[3,5-dichloro-4-[(5,5-dimethyl-6-oxo-7H-pyrrolo[2,3-c]pyridazin-3-yl)oxy]phenyl]3,5-dioxo-1,2,4-triazine-6-carbonitrile], the EC50 was 1000 to 25000 nM in test [1], over 10000 nM on THR alpha (setting [3]), 1000 to 25000 nM in test [2] and over 10000 nM at THR beta (setting [4]). Also, the Emax was 50 to 75% in test [1], under 50% at THR alpha (Assay 2), under 50% in test [2] and under 50% at THR beta.
Consider `CC1(C)C(=O)Nc2ccc(Oc3c(Cl)cc(-n4nc(N)c(=O)[nH]c4=O)cc3Cl)cc21` [Compound 82, 6-amino-2-[3,5-dichloro-4-[(3,3-dimethyl-2-oxo-1H-indol-5-yl)oxy]phenyl]-4H-1,2,4-triazine-3,5-dione], for which the EC50 (in test [1]; on THR alpha (setting [3]); in test [2]; at THR beta (setting [4])) was under 50 nM each time. Besides, the Emax (in test [1]; at THR alpha (Assay 2); in test [2]; at THR beta) was over 75% each time.
`O=c1cc(-c2ccc3ccccc3c2)c(Oc2c(Cl)cc(-n3ncc(=O)[nH]c3=O)cc2Cl)n[nH]1` [Compound 92-A]: the EC50 in test [1] was under 50 nM; on THR alpha (setting [3]), over 10000 nM; in test [2], 1000 to 25000 nM; at THR beta (setting [4]), 250 to 1000 nM. Moreover, the Emax in test [1] was under 50%; on THR alpha (Assay 2) it was under 50%; in test [2], 50 to 75%; at THR beta, under 50%.
Take `CC(C)(O)c1cc(Oc2c(Cl)cc(-n3nc(N)c(=O)[nH]c3=O)cc2Cl)n[nH]c1=O` [Compound 60, 6-amino-2-(3,5-dichloro-4-[[5-(2-hydroxypropan-2-yl)-6-oxo-1H-pyridazin-3-yl]oxy]phenyl)-4H-1,2,4-triazine-3,5-dione]: the concentration for a half-maximal effect (EC50) in test [1] was 250 to 1000 nM; at THR alpha (setting [3]), 1000 to 10000 nM; in test [2], 1000 to 25000 nM; at THR beta (setting [4]) it was 1000 to 10000 nM. The Emax in test [1] is under 50%; on THR alpha (Assay 2), over 75%; in test [2], under 50%; on THR beta it was over 75%.
Consider `N#Cc1nn(-c2cc(Cl)c(Oc3cc(C4CCCC4)c(=O)[nH]n3)c(Cl)c2)c(=O)[nH]c1=O` [CN analog 1, reference compound], for which the EC50 at THR alpha (HEK293T reporter THRalpha/RXR, read-out: EC50 α) was over 10000 nM; at THR beta (HEK293T reporter THRbeta/RXR, read-out: EC50 β), over 10000 nM.
